Values of other authors as cited in patent publication US20170333389A1, “Method of Ameliorating Clotting Pathologies and Related Materials and Methods” (The Ohio State University, priority 2012, published 2017).

What was measured:
platelet aggregation = conditions: low-dose aspirin (81 mg) treated healthy volunteers
[1] = patients who have had a TIA or stroke

## CC(C)c1c(C(=O)Nc2ccccc2)c(-c2ccccc2)c(-c2ccc(F)cc2)n1CC[C@@H](O)C[C@@H](O)CC(=O)O [atorvastatin]
Recurrent stroke; patients with stroke, high dose, over 5 years
  decrease of risk of recurrent stroke: about 2%

## CC(=O)Oc1ccccc1C(=O)O [aspirin]
Platelet aggregation
  platelet function recovery after withdrawal: 48 to 72 h
Recurrent stroke; [1]
  decrease of relative risk of non-fatal ischemic stroke: 19%
  decrease of relative risk of recurrent stroke, myocardial infarction, and vascular death: 13%

## CC(=O)CC(c1ccccc1)c1c(O)c2ccccc2oc1=O (centres unmarked) [warfarin]
Recurrent stroke; patients with stroke due to atrial fibrillation, dose-adjusted
  decrease of relative stroke risk: 62%
